Results published in ChEMBL document CHEMBL5500336, “Recent advances in developing modified C14 side chain pleuromutilins as novel antibacterial agents” (Eur J Med Chem, 2024).
≈ marks a conversion by molar mass, not a printed value.

Tests used:
Staphylococcus = test: Antimicrobial activity against methicillin-resistant coagulase negative Staphylococcus P1369 at 1 nmol relative to control; assay type: functional
Staphylococcus aureus [1] = test: Antibacterial activity against […] Staphylococcus aureus ATCC 43300 assessed as inhibition of bacterial growth measured after 24 hrs by MH broth based assay; assay type: functional
Staphylococcus aureus [2] = test: Antibacterial activity against […] Staphylococcus aureus ATCC 43300 assessed as inhibition of bacterial growth; assay type: functional
[3] = system: Staphylococcus epidermidis; test: Antibacterial activity against […] Staphylococcus epidermidis ATCC 51625 assessed as inhibition of bacterial growth measured after 24 hrs by MH broth based assay; assay type: functional
Staphylococcus aureus [4] = test: Antibacterial activity against […] Staphylococcus aureus ATCC 25923 assessed as reduction in bacterial growth measured after 24 hrs by MH broth based assay; assay type: functional
Staphylococcus aureus [5] = test: Antibacterial activity against […] Staphylococcus aureus BNCC 337371 assessed as bacterial growth inhibition incubated for 18 to 24 hrs by NCCLS based assay; assay type: functional; details: time 18-24 hrs
Staphylococcus aureus [6] = test: Antibacterial activity against Methicillin-resistant Staphylococcus aureus assessed as bacterial growth inhibition; assay type: functional
[7] = system: Staphylococcus epidermidis; test: Antibacterial activity against […] Staphylococcus epidermidis ATCC 35984 after 16 to 18 hrs by CLSI protocol based broth microdilution assay; assay type: functional; details: time 16-18 hrs
[8] = system: Staphylococcus epidermidis; test: Antibacterial activity against methicillin-sensitive Staphylococcus epidermidis ATCC 12228 assessed as reduction in bacterial growth incubated for 18 hrs by agar dilution method; assay type: functional
Staphylococcus aureus [9] = test: Antibacterial activity against Methicillin-sensitive Staphylococcus aureus assessed as bacterial growth inhibition; assay type: functional
Staphylococcus aureus [10] = test: Antibacterial activity against […] Staphylococcus aureus ATCC 43300 assessed as reduction in bacterial growth by CLSI protocol based broth microdilution method; assay type: functional
Staphylococcus aureus [11] = test: Antibacterial activity against […] Staphylococcus aureus ATCC 33592 assessed as bacterial growth inhibition; assay type: functional
Streptococcus pneumoniae = test: Antibacterial activity against Streptococcus pneumoniae B1 assessed as reduction in bacterial growth; assay type: functional
Staphylococcus aureus [12] = test: Antibacterial activity against […] Staphylococcus aureus ATCC 43300 assessed as reduction in microbial growth after 16 hrs by broth microdilution method; assay type: functional
Staphylococcus aureus [13] = test: Antimicrobial activity against […] Staphylococcus aureus ATCC 33591 assessed as inhibition of microbial growth measured after 20 to 24 hrs incubation by CLSI method; assay type: functional; details: time 20-24 hrs
Staphylococcus aureus [14] = test: Antimicrobial activity against […] Staphylococcus aureus ATCC 43300 assessed as inhibition of microbial growth measured after 20 to 24 hrs incubation by CLSI method; assay type: functional; details: time 20-24 hrs
Staphylococcus aureus [15] = test: Antimicrobial activity against methicillin-Staphylococcus aureus 29213 assessed as inhibition of microbial growth incubated for 24 hrs by broth-microdilution assay; assay type: functional
[16] = Cytotoxicity against mouse RAW264.7 cells assessed as reduction in cell viability incubated for 48 hrs by MTT assay; assay type: toxicity, cell-based
Staphylococcus aureus [17] = test: Antibacterial activity against methicillin-sensitive Staphylococcus aureus assessed as reduction in microbial growth; assay type: functional
Escherichia coli = test: Antibacterial activity against Escherichia coli ATCC 25922 assessed as bacterial growth inhibition measured after 18 hrs by CLSI based method; assay type: functional
Staphylococcus aureus [18] = test: Antibacterial activity against Staphylococcus aureus ATCC 25923 assessed as reduction in bacterial growth incubated for 24 hrs by serial dilution method; assay type: functional
Staphylococcus aureus [19] = test: Antimicrobial activity against […] Staphylococcus aureus ATCC 33591 assessed as reduction in microbial growth incubated for 24 hrs by CLSI protocol based analysis; assay type: functional

C=C[C@]1(C)C[C@@H](OC(=O)CS[C@@H]2CC[C@@H](N)C[C@H]2O)[C@]2(C)[C@H](C)CC[C@]3(CCC(=O)[C@H]32)[C@@H](C)[C@@H]1O [LEFAMULIN]
Activity (Staphylococcus): 3.4%

C=C[C@]1(C)C[C@@H](OC(=O)CSc2ccc(NC(=O)c3cccc(F)c3)cc2)[C@]2(C)[C@H](C)CC[C@]3(CCC(=O)[C@H]32)[C@@H](C)[C@@H]1O
MBC (Staphylococcus aureus [1]): 0.03 µg/mL (≈ 0.0494 µM) | MIC (Staphylococcus aureus [2]): 0.03 µg/mL (≈ 0.0494 µM)

C=C[C@]1(C)C[C@@H](OC(=O)CSc2nc(C)c(C(=O)OC)c(C)n2)[C@]2(C)[C@H](C)CC[C@]3(CCC(=O)[C@H]32)[C@@H](C)[C@@H]1O
MIC [3]: 0.03 µg/mL (≈ 0.0537 µM) | MIC (Staphylococcus aureus [4]): 0.016 µg/mL (≈ 0.0286 µM) | MIC (Staphylococcus aureus [5]): 0.015 µg/mL (≈ 0.0268 µM)

C=C[C@]1(C)C[C@@H](OC(=O)CSCc2csc(NC(=O)CN3CCC[C@@H]3CO)n2)[C@]2(C)[C@H](C)CC[C@]3(CCC(=O)[C@H]32)[C@@H](C)[C@@H]1O
MIC (Staphylococcus aureus [6]): 0.063 µg/mL (≈ 0.0972 µM) | MIC [7]: 0.063 µg/mL (≈ 0.0972 µM) | MIC [8]: 0.063 µg/mL (≈ 0.0972 µM) | MIC (Staphylococcus aureus [9]): 0.063 µg/mL (≈ 0.0972 µM) | MIC (Staphylococcus aureus [10]): 0.063 µg/mL (≈ 0.0972 µM)

C=C[C@]1(C)C[C@@H](OC(=O)CSc2ccccc2N)[C@]2(C)[C@H](C)CC[C@]3(CCC(=O)[C@H]32)[C@@H](C)[C@@H]1O
MIC (Staphylococcus aureus [11]): 0.5 µg/mL (≈ 1.03 µM) | MIC (Streptococcus pneumoniae): 0.016 µg/mL (≈ 0.0329 µM) | MIC (Staphylococcus aureus [12]): 0.016 µg/mL

C=C[C@]1(C)C[C@@H](OC(=O)CSCc2csc(NC(=O)CN3CCCCC3)n2)[C@]2(C)[C@H](C)CC[C@]3(CCC(=O)[C@H]32)[C@@H](C)[C@@H]1O
MIC (Staphylococcus aureus [6]): 0.063 µg/mL (≈ 0.0997 µM) | MIC [7]: 0.063 µg/mL (≈ 0.0997 µM) | MIC [8]: 0.063 µg/mL (≈ 0.0997 µM) | MIC (Staphylococcus aureus [9]): 0.063 µg/mL (≈ 0.0997 µM)

C=C[C@]1(C)C[C@@H](OC(=O)CN2CCN(c3ccc(C(=O)/C=C/c4ccc([N+](=O)[O-])cc4)cc3)CC2)[C@]2(C)[C@H](C)CC[C@]3(CCC(=O)[C@H]32)[C@@H](C)[C@@H]1O
MIC (Staphylococcus aureus [13]): 0.5 µg/mL | MIC (Staphylococcus aureus [14]): 0.5 µg/mL

C=C[C@]1(C)C[C@@H](OC(=O)CSc2ccc(NC(=O)c3cccs3)cc2)[C@]2(C)[C@H](C)CC[C@]3(CCC(=O)[C@H]32)[C@@H](C)[C@@H]1O
MBC (Staphylococcus aureus [1]): 0.03 µg/mL (≈ 0.0504 µM) | MIC (Staphylococcus aureus [2]): 0.03 µg/mL (≈ 0.0504 µM)

C=C[C@]1(C)C[C@@H](OC(=O)CSc2nnc(-c3cccs3)o2)[C@]2(C)[C@H](C)CC[C@]3(CCC(=O)[C@H]32)[C@@H](C)[C@@H]1O
MIC (Staphylococcus aureus [15]): 0.125 µg/mL | IC50 at 48 h [16]: 17.9 µg/mL (≈ 32.8 µM)

C=C[C@]1(C)C[C@@H](OC(=O)CSc2ccccc2NC(=O)c2ccccc2C)[C@]2(C)[C@H](C)CC[C@]3(CCC(=O)[C@H]32)[C@@H](C)[C@@H]1O
MIC (Staphylococcus aureus [12]): 0.25 µg/mL

C=C[C@]1(C)C[C@@H](OC(=O)CSc2nc(C)c(C(C)=O)c(C)n2)[C@]2(C)[C@H](C)CC[C@]3(CCC(=O)[C@H]32)[C@@H](C)[C@@H]1O
MIC [3]: 0.03 µg/mL (≈ 0.0553 µM) | MIC (Staphylococcus aureus [4]): 0.016 µg/mL (≈ 0.0295 µM) | MIC (Staphylococcus aureus [5]): 0.015 µg/mL (≈ 0.0276 µM)

C=C[C@]1(C)C[C@@H](OC(=O)CSc2cccc(NC(=O)Nc3ccc(C#N)cc3)c2)[C@]2(C)[C@H](C)CC[C@]3(CCC(=O)[C@H]32)[C@@H](C)[C@@H]1O
MIC (Staphylococcus aureus [17]): 0.06 µg/mL

C=C[C@]1(C)C[C@@H](OC(=O)CSC2=NC(C)=C(C(C)=O)C(C)N2)[C@]2(C)[C@H](C)CC[C@]3(CCC(=O)[C@H]32)[C@@H](C)[C@@H]1O (some centres undefined)
MIC [3]: 0.25 µg/mL (≈ 0.459 µM) | MIC (Staphylococcus aureus [4]): 0.25 µg/mL (≈ 0.459 µM) | MIC (Staphylococcus aureus [5]): 0.125 µg/mL (≈ 0.229 µM)

C=C[C@]1(C)C[C@@H](OC(=O)CSC2=NC(C)=C(C(=O)OC)C(C)N2)[C@]2(C)[C@H](C)CC[C@]3(CCC(=O)[C@H]32)[C@@H](C)[C@@H]1O (some centres undefined)
MIC [3]: 0.125 µg/mL (≈ 0.223 µM) | MIC (Staphylococcus aureus [4]): 0.25 µg/mL (≈ 0.446 µM) | MIC (Staphylococcus aureus [5]): 0.25 µg/mL (≈ 0.446 µM)

C=C[C@]1(C)C[C@@H](OC(=O)CSc2ccccc2NC(=O)c2cccc(F)c2)[C@]2(C)[C@H](C)CC[C@]3(CCC(=O)[C@H]32)[C@@H](C)[C@@H]1O
MIC (Staphylococcus aureus [12]): 0.125 µg/mL

C=C[C@]1(C)C[C@@H](OC(=O)CSC2=NC(C)=C(C(=O)OCC)C(C)N2)[C@]2(C)[C@H](C)CC[C@]3(CCC(=O)[C@H]32)[C@@H](C)[C@@H]1O (some centres undefined)
MIC [3]: 0.06 µg/mL (≈ 0.104 µM) | MIC (Staphylococcus aureus [4]): 0.125 µg/mL (≈ 0.217 µM) | MIC (Staphylococcus aureus [5]): 0.06 µg/mL (≈ 0.104 µM)

C=C[C@]1(C)C[C@@H](OC(=O)CN2CCN(c3ccc(C4CC(c5ccccc5[N+](=O)[O-])=NN4)cc3)CC2)[C@]2(C)[C@H](C)CC[C@]3(CCC(=O)[C@H]32)[C@@H](C)[C@@H]1O (some centres undefined)
MIC (Escherichia coli): 2 µg/mL (≈ 2.81 µM) | MIC (Staphylococcus aureus [13]): 2 µg/mL | MIC (Staphylococcus aureus [14]): 2 µg/mL

C=C[C@]1(C)C[C@@H](OC(=O)CSc2ccc(NC(=O)c3ccc(F)cc3)cc2)[C@]2(C)[C@H](C)CC[C@]3(CCC(=O)[C@H]32)[C@@H](C)[C@@H]1O
MBC (Staphylococcus aureus [1]): 0.03 µg/mL (≈ 0.0494 µM) | MIC (Staphylococcus aureus [2]): 0.03 µg/mL (≈ 0.0494 µM)

C=C[C@]1(C)C[C@@H](OC(=O)CN2CCN(C(=O)CNC[C@H]3CN(c4ccc(Cl)cc4)C(=O)O3)CC2)[C@]2(C)[C@H](C)CC[C@]3(CCC(=O)[C@H]32)[C@@H](C)[C@@H]1O
MIC (Staphylococcus aureus [18]): 0.008 µg/mL (≈ 0.0112 µM)

C=C[C@]1(C)C[C@@H](OC(=O)CSc2nc(C)c(C(=O)OCC)c(C)n2)[C@]2(C)[C@H](C)CC[C@]3(CCC(=O)[C@H]32)[C@@H](C)[C@@H]1O
MIC [3]: 0.015 µg/mL (≈ 0.0262 µM) | MIC (Staphylococcus aureus [4]): ≤ 0.016 µg/mL | MIC (Staphylococcus aureus [5]): 0.015 µg/mL (≈ 0.0262 µM)

C=C[C@]1(C)C[C@@H](OC(=O)CN2CCN(c3ccc(C(=O)/C=C/c4ccc(N)cc4)cc3)CC2)[C@]2(C)[C@H](C)CC[C@]3(CCC(=O)[C@H]32)[C@@H](C)[C@@H]1O
MIC (Staphylococcus aureus [13]): 0.5 µg/mL | MIC (Staphylococcus aureus [14]): 0.5 µg/mL

C=C[C@]1(C)C[C@@H](OC(=O)CSCc2csc(N)n2)[C@]2(C)[C@H](C)CC[C@]3(CCC(=O)[C@H]32)[C@@H](C)[C@@H]1O
MIC (Staphylococcus aureus [6]): 0.063 µg/mL (≈ 0.124 µM) | MIC [7]: 0.063 µg/mL (≈ 0.124 µM) | MIC [8]: 0.063 µg/mL (≈ 0.124 µM) | MIC (Staphylococcus aureus [9]): 0.063 µg/mL (≈ 0.124 µM)

C=C[C@]1(C)C[C@@H](OC(=O)CN2CCN(c3ccc(C4CC(N)=NC=C4c4ccccc4[N+](=O)[O-])cc3)CC2)[C@]2(C)[C@H](C)CC[C@]3(CCC(=O)[C@H]32)[C@@H](C)[C@@H]1O (some centres undefined)
MIC (Escherichia coli): 8 µg/mL (≈ 10.8 µM) | MIC (Staphylococcus aureus [13]): 1 µg/mL | MIC (Staphylococcus aureus [14]): 1 µg/mL

C=C[C@]1(C)C[C@@H](OC(=O)CSc2ccc(NC(=O)c3ccco3)cc2)[C@]2(C)[C@H](C)CC[C@]3(CCC(=O)[C@H]32)[C@@H](C)[C@@H]1O
MBC (Staphylococcus aureus [1]): 0.03 µg/mL (≈ 0.0517 µM) | MIC (Staphylococcus aureus [2]): 0.015 µg/mL (≈ 0.0259 µM)

C=C[C@]1(C)C[C@@H](OC(=O)CSc2ccc(NC(=O)c3ccc(C#N)cc3)cc2)[C@]2(C)[C@H](C)CC[C@]3(CCC(=O)[C@H]32)[C@@H](C)[C@@H]1O
MBC (Staphylococcus aureus [1]): 0.03 µg/mL (≈ 0.0488 µM) | MIC (Staphylococcus aureus [2]): 0.015 µg/mL (≈ 0.0244 µM)

C=C[C@]1(C)C[C@@H](OC(=O)CSc2nc3c(F)cccc3o2)[C@]2(C)[C@H](C)CC[C@]3(CCC(=O)[C@H]32)[C@@H](C)[C@@H]1O
MIC (Staphylococcus aureus [19]): 0.125 µg/mL

C=C[C@]1(C)C[C@@H](OC(=O)CSc2ccc(NC(=O)c3ccccc3F)cc2)[C@]2(C)[C@H](C)CC[C@]3(CCC(=O)[C@H]32)[C@@H](C)[C@@H]1O
MBC (Staphylococcus aureus [1]): 0.062 µg/mL (≈ 0.102 µM) | MIC (Staphylococcus aureus [2]): 0.03 µg/mL (≈ 0.0494 µM)
